Measurements: patent US8791158B2, “Methods of treating meibomian gland dysfunction” (GTX, Inc., priority 2010, dated 2014)

Columns and labels:
[1] = system: Meibomian gland secretions of rabbits; details: cited from earlier work
[2] = system: acute, orchiectomized (ORX) rabbit model; assay: Tear fatty acid composition (palmitate:stearate ratio) after Compound 2 or TP, Example 3; format: in vivo; details: ORX rabbits
Source text: The goal of this study was to compare the effect of Compound 2 to testosterone propionate (TP) on tear composition in an acute, orchiectomized (ORX) rabbit model.
Fifteen New Zealand white rabbits weighing approximately 3 lbs were allowed to acclimate for 4 weeks before the start of the study. Animals were weighed on day 0 of the study, randomized according to body weight and allotted to the following dose groups:
Pre-dose tear and blood samples were collected. Animals from groups 2-5 were to premedicated with glycopyrrolate (0.02 mg/kg) and then anesthesia was induced with a combination of ketamine (15 mg/kg): medetomidine (0.25 mg/kg).
Anesthesia was maintained with isoflurane (1 liter/hr). Orchiectomy was performed using a scrotal incision. Animals were revived from anesthesia using atipamezole (1 mg/kg) SQ. Analgesia was provided with buprenorphine (0.05 mg/kg) Immediately after the animals had recovered from anesthesia, they received their first dose with the appropriate test articles as indicated above.
Drug dosing was done once daily for 14 days. Blood was collected at 60 minutes post administration of the last dose of drug and plasma separated for HPLC analysis of parent drug concentrations.
Tears were collected using Schirmer tear strips (Alcon, Tex.) on day 0 before surgery, 24 hours after the last administration of drug (day 15) and also at 42 days (6 weeks after start of study). The tears were stored at −80° C. prior to lipid analysis.
Lipids were hydrolyzed, extracted from the Schirmer strips, derivatized, and subjected to gas chromatography with flame ionization detector (GCFID) to evaluate the lipid composition.
The samples were evaluated for the presence of 28 saturated and unsaturated fatty acids that included methyl caprate (C10:0), methyl laurate (C12:0), methyl 11-dodecenoate (C12:1), methyl myristate (C14:0), methyl myristoleate (C14:1), methyl palmitate (C16:0), methyl palmitoleate (C16:1), methyl stearate (C18:0), methyl oleate (C18:1), methyl vaccenate (C18:1), methyl linoleate (C18:2), methyl gamma linoleate (C18:3), methyl linoleate (C18:3), methyl arachidate (C20:0), methyl 11-eicosenoate (C20:1), methyl 11,14 eicosadinoate (C20:2), methyl 8,11,14 eicosatrienoate (C20:3), methyl eicosapentaenoate (C20:5), methyl behenate (C22:0), methyl erucate (C22:1), methyl 13,16 docosaenoate (C22:2), methyl docosatetraenoate (C22:4), methyl docosapentaenoate (C22:5), methyl docosahexaenoate (C22:6), methyl lignocerate (C24:0), and methyl nervonate (C24:1).
The area under the curve for each individual peak was determined using GC ChemStation software. […] These samples were then washed with a saturated solution of NaCl+0.1% formic acid (FA). […] These samples were all in the predose tear group. Two more samples from the predose group and one sample from Vehicle Intact treated group had small but clear and well to separated peaks that were included in the analysis.
To normalize for the tear content, the lipid composition was expressed as a ratio of the lipid that was most affected by castration (palmitate) to one which remained relatively constant (stearate). Blood was also collected on day 15 (24 hours after last drug administration) of the study, plasma separated and analyzed for Compound 2.
The last dose of drug or vehicle was administered on day 15 of the study Animals were left untreated for 4 weeks (washout period) before tear samples were collected again on Schirmer tear strips and analyzed as indicated above.

| Compound | Effect on fatty acid profile in total and neutral lipid fractions of Meibomian gland secretions [1] | Increase of tear palmitate:stearate ratio relative to intact animals ([2]; 2.5 mg/kg, 14 days) | Tear palmitate:stearate ratio after 4 week washout ([2]; SQ 2.5 mg/kg for two weeks, then untreated 4 weeks) |
| --- | --- | --- | --- |
| C[C@]12CC[C@H]3[C@@H](CCC4=CC(=O)CC[C@@H]43)[C@@H]1CC[C@@H]2O [19-nortestosterone] | modulated the fatty acid profile | – | – |
| CCC(=O)O[C@H]1CC[C@H]2[C@@H]3CCC4=CC(=O)CC[C@]4(C)[C@H]3CC[C@]12C [TP, testosterone propionate, reference compound] | – | two times that of intact animals | 1.67±0.17 |
